Experimental data reported in patent US20160311788A1, “Antifouling Compounds And Use Thereof” (National University of Singapore, priority 2008, published 2016).
In brackets after ≈: the same amount, converted by molar mass. Read-outs that look alike come from different tables or passages of the source.

What was measured:
[1] = system: Stage II nauplii of Balanus amphitrite; experiment: barnacle toxicity assay; type: in vivo; conditions: Table 3(a); concentration that caused 50% mortality, 22 to 24 hours, Stage II nauplii
Description: (§1) Pure compounds were suspended in DMSO and sonicated to obtain a stock solution of 50 mg ml^−1 in DMSO. This stock solution is stored at −20° C. in 4 ml amber screw cap vials. For the bioassays, a small volume of stock solution was added to 1 μm filtered seawater in a glass scintillation vial. This suspension was then sonicated around 10 minutes. Serial dilutions were generated to the required range of concentrations. Serial dilution of the equivalent amounts of DMSO in seawater was used as the control.
(§2) The barnacle bioassay method used follows from the method first introduced by Rittschof et al. (1992), and subsequently by other authors (Willemsen et al., 1998). This method is now standard practice for many antifouling screening of novel compounds.
Toxicity assays were modified from Rittschof et al. (1992). Stage II naupliar larvae used in tests were obtained from Balanus amphitrite adults collected from inter-tidal rock walls at Kranji mangrove, Singapore. Larvae were collected from a container of adults by attraction to a point source of light and transferred to 500 ml of fresh seawater. Next, larvae were re-concentrated with a fiber optic light and added to assays.
Duplicate assays were conducted in 2 ml glass vials (La Pha Pack® PN 11-14-0544) in 1 ml of filtered seawater for 22 to 24 hours. The assays were repeated for confirmation. There were two sets of controls, a blank control consisting of 3 tubes of seawater only, and DMSO control consisting of the equivalent dilution series with DMSO without compound). For the compounds, there were 3 tubes of each for each test concentration. The assay was initiated by addition of barnacle naupliar in 50 μl of seawater. After 22 to 24 hours of incubation at 25-27° C. solutions containing test animals were transferred to a Bogorov tray and scored as living or dead. Moribund larvae were scored as dead. Results were confirmed by repeating the assay. Data were combined and the concentration that caused 50% mortality (LD50) was calculated by probit analysis using a basic computer program (Libermann, 1983). If data were not appropriate for probit analysis, the LD50 was estimated from graphed data.

[2] = system: marine bacteria strain S18; experiment: disc inhibition assay, strain S18; type: cell-based, Microbacterium esteraromaticum; conditions: for zone of inhibition: strain 18, 50 μg of compound per disc
[3] = system: marine bacteria strain S10; experiment: disc inhibition assay, strain S10; type: cell-based, Halobacillus trueperi; conditions: for zone of inhibition: strain 10, 50 μg of compound per disc
Summary of the method: (§3)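 Compounds were applied at 50 μg per 6 mm disc (from 2 mg/ml DMSO stock; DMSO control) onto lawns of Singapore coastal fouling bacteria on marine agar. After overnight incubation in the dark at 35 °C, inhibition-zone diameters were caliper-measured; mean of two replicates.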

[4] = system: marine bacteria strain S27; experiment: disc inhibition assay, strain S27; type: cell-based, Tenacibaculum lutimaris; conditions: for zone of inhibition at 50 µg/disc: Tenacibaculum lutimaris, S27, 24 h
Summary of the method: as §3

[5] = system: marine bacteria strain S3; experiment: disc inhibition assay, strain S3; type: cell-based, Erythrobacter aquimaris; conditions: for zone of inhibition at 50 µg/disc: Qipengyuania aquimaris, S3, 24 h
Summary of the method: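 Disc inhibition assay against a marine bacterial strain isolated from fouling communities in Singapore coastal waters. The strain was grown in marine broth and swabbed over Marine Agar plates as a lawn. 6 mm sterile discs loaded with compound in DMSO, or DMSO controls, were placed on the plates and incubated overnight in the dark at 35° C.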

[6] = system: marine bacteria strain S30; experiment: disc inhibition assay, strain S30; type: cell-based, Bacillus borophilicus; conditions: for zone of inhibition: strain 30, 50 μg of compound per disc
Summary of the method: as §3

[7] = system: marine bacteria strain S29; experiment: disc inhibition assay, strain S29; type: cell-based, Bacillus hwajinpoensis; conditions: for zone of inhibition at 50 µg/disc: Guptibacillus hwajinpoensis, S29, 24 h
Summary of the method: as §3

[8] = system: cyprids of Balanus amphitrite; experiment: barnacle settlement assay; type: in vivo; conditions: Amphibalanus amphitrite, 24 h, concentration that caused 50% settlement inhibition, 24 hours, cyprids
Description: as §1, §2
Barnacle settlement assays were based on methodology from Rittschof et al. (1992). Barnacle larvae from field-collected adults were reared on an algal mixture of 1:1 v/v of Tetraselmis suecica and Chaetoceros muelleri at 25° C., at approximately 5×10^5 cells per ml density. On this regime, larvae metamorphose to cyprids in 5 days. These cyprids were aged at 4° C. for 2-3 days, and 45-70% settlement after 24 hours (Willemsen et al., 1998).
Settlement tests were conducted in 7 ml neutral glass vials (Samco® T1 03N1) 34 mm by 23 mm diameter, with 20-40 cyprids per well. Test solutions were made up to twice the required final concentration. 0.5 ml of test solution was added into each well, and cyprids were transferred into each well in 0.5 ml of seawater. Assays were done in triplicate. As before, there were two sets of controls, a blank control consisting 3 tubes of seawater only, and DMSO control consisting of the equivalent dilution series with DMSO without compound. After 24 hours, larvae that had attached and metamorphosed were enumerated and the result expressed as percentage settlement. Larvae not attached were scored as not settled. The assays were repeated and the concentration that caused 50% settlement inhibition (ED50) was determined by pro bit analysis using a basic computer program (Lieberman, 1983), or by estimation from graphed data.

[9] = system: marine bacteria strain S9; experiment: disc inhibition assay, strain S9; type: cell-based, Bacillus algicola; conditions: for zone of inhibition at 50 µg/disc: Guptibacillus algicola, S9, 24 h
Summary of the method: as §3

[10] = system: marine bacteria strain S17; experiment: disc inhibition assay, strain S17; type: cell-based, Gordonia terrae; conditions: for zone of inhibition: strain 17, 50 μg of compound per disc
Summary of the method: as §3

[11] = system: marine bacteria strain S1; experiment: disc inhibition assay, strain S1; type: cell-based, Rhodovulum iodosum; conditions: strain 1, 50 μg of compound per disc
Summary of the method: as §3

[12] = system: marine bacteria strain S4; experiment: disc inhibition assay, strain S4; type: cell-based, Bacillus algicola; conditions: for zone of inhibition: strain 4, 50 μg of compound per disc
Summary of the method: as §3

[13] = system: marine bacteria strain S14; experiment: disc inhibition assay, strain S14; type: cell-based, Vibrio probioticus; conditions: strain 14, 50 μg of compound per disc
[14] = system: marine bacteria strain S16; experiment: disc inhibition assay, strain S16; type: cell-based, Pseudoalteromonas piscicida; conditions: strain 16, 50 μg of compound per disc
Summary of the method: as §3

[15] = system: marine bacteria strain S28; experiment: disc inhibition assay, strain S28; type: cell-based, Arthrobacter protophormial; conditions: for zone of inhibition: strain 28, 50 μg of compound per disc
Summary of the method: as §3

[16] = strain 27, 50 μg of compound per disc
[17] = strain 3, 50 μg of compound per disc, read-out: zone of inhibition
[18] = strain 29, 50 μg of compound per disc
[19] = Table 3(a), read-out: ED50 (the source's name)
[20] = strain 9, 50 μg of compound per disc

| SMILES | LD50 [1] [µg/mL] | zone of inhibition [2] | zone of inhibition [3] | zone of inhibition [4, 16] | zone of inhibition at 50 µg/disc [5, 17] [mm] | zone of inhibition [6] | zone of inhibition [7, 18] | IC50 [8, 19] [µg/mL] | zone of inhibition [9, 20] | zone of inhibition [10] | zone of inhibition [11] | zone of inhibition [12] | zone of inhibition [13] | zone of inhibition [14] | zone of inhibition [15] | also measured |
| --- | --- | --- | --- | --- | --- | --- | --- | --- | --- | --- | --- | --- | --- | --- | --- | --- |
| O=C(C(c1ccccc1)c1ccccc1)N1CCC(O)(c2ccccc2)CC1 [Compound 4.5] | > 50 | − | − | − | 5 to 10 | − | − | 6.48 (≈ 17.4 µM) | − | − | − | − | − | − | − |  |
| O=C(Cc1ccccc1)N1CCC(O)(c2ccccc2)CC1 [Compound 10.4] | > 50 | − | − |  | 2 to 5 | − | − | 15 (≈ 50.8 µM) |  | − | − | − | − |  | − | zone of inhibition at 50 µg/disc ([4]; strain 27, 50 μg of compound per disc, read-out: zone of inhibition): 2 to 5 mm; zone of inhibition at 50 µg/disc ([9]; strain 9, 50 μg of compound per disc, read-out: zone of inhibition): 2 to 5 mm; zone of inhibition at 50 µg/disc ([14]; Pseudoalteromonas piscicida, S16, 24 h, read-out: zone of inhibition): 2 to 5 mm |
| CCCCC(CCCC)C(=O)N(C)C [Compound 12.3] | > 50 | − | − | − |  | − |  | 2.76 (≈ 13.8 µM) | − | − | − | − | − | − | − | zone of inhibition ([5]; strain 3, 50 μg of compound per disc): −; zone of inhibition at 50 µg/disc ([7]; strain 29, 50 μg of compound per disc, read-out: zone of inhibition): 2 to 5 mm |
| CN(C)C(=O)C(CCN1CCC(O)(c2ccc(Cl)cc2)CC1)(c1ccccc1)c1ccccc1 [LOP, loperamide, reference compound] | 1.56 |  |  |  |  |  |  |  |  |  | − |  | − | − |  | zone of inhibition at 50 µg/disc ([2]; Microbacterium esteraromaticum, S18, 24 h): > 10 mm; zone of inhibition at 50 µg/disc ([3]; Halobacillus trueperi, S10, 24 h): 5 to 10 mm; zone of inhibition at 50 µg/disc [4]: 5 to 10 mm; zone of inhibition at 50 µg/disc [5]: > 10 mm; zone of inhibition at 50 µg/disc ([6]; Bacillus, S30, 24 h): 2 to 5 mm; zone of inhibition at 50 µg/disc [7]: 5 to 10 mm; IC50 ([8]; read-out: ED50, Table 3(a)): 0.37 µg/mL (≈ 0.776 µM); zone of inhibition at 50 µg/disc [9]: 5 to 10 mm; zone of inhibition at 50 µg/disc ([10]; Gordonia terrae, S17, 24 h): 5 to 10 mm; zone of inhibition at 50 µg/disc ([12]; Guptibacillus algicola, S4, 24 h): 5 to 10 mm; zone of inhibition at 50 µg/disc ([15]; Arthrobacter, S28, 24 h): 5 to 10 mm |
